Assay results: patent publication US8242136B2, “Use of glucosidase inhibitors for therapy of mucovisidosis” (Centre National de la Recherche Scientifique (C.N.R.S.), priority 2003, dated 2012)
“Also recorded” adds a separate entry of the source.

Tests used:
delF508-CFTR [1] = assay: Iodide efflux on CF15 cells: addressing of delF508 after pre-treatment, stimulation with forskolin + genistein; type: cell-based, human; details: CF15 cells treated with 100μM for two hours at 37° C.; Forskolin 10μM + Genistein 30μM; FIG. 7
delF508-CFTR [2] = assay: as above; type: cell-based, human
Procedure: CF15 cells: CF15 cells are human epithelial cells of nasal origin which express the ΔF508-CFTR gene.
The measurements of chloride ion transport in the cells were carried out using the radioactive iodide efflux technique (Becq et al., 1999; Dormer et al., 2001). The tracer (^125I) is incorporated into the intracellular medium. Then, the quantity of radiotracer leaving the cell is counted after the addition of different pharmacological agents. The iodide is used as a tracer of the chloride ion transport. It has been shown that the two radiotracers ^125I and ^36Cl could be considered as equivalents for measuring the activity of a chloride channel (Venglarick et al., 1990). ^125I moreover has the advantage of having a short life compared with that of […] (respective half-lives: 30 days and 300,000 years). The cells are cultured on 24-well plates in an appropriate medium. 2 rinsings with efflux medium (NaCl: 136.6 mM, KCl: 5.4 mM, KH2PO4: 0.3 mM, NaH2PO4: 0.3 mM, NaHCO3: 4.2 mM, CaCl2: 1.3 mM, MgCl2: 0.5 mM, MgSO4: 0.4 mM, HEPES: 10 mM, D-glucose: 5.6 mM) are carried out in order to eliminate the dead cells which release the radioactivity in an anarchic manner. Then, the cells are incubated with 500 μl of charge (1 μCi/ml of ^125INa) for 30 minutes for CHO-WT or 1 hour for CF15 and Calu-3. The iodide is in equilibrium on both sides of the cell membrane. The robot (MultiPROBE, Packard) carries out the following stages: The charge medium is rinsed with efflux medium in order to eliminate the extracellular radioactivity. The supernatant is collected every minute in haemolysis tubes and the medium is replaced by an equivalent volume (500 μl). The samples taken in the first 3 minutes are not subjected to the addition of a drug, they make it possible to obtain a stable base line, characterizing the passive exit of the I^− ions. The following 7 samples are obtained in the presence of the molecule to be tested. At the end of the experiment, the cells are lysed by the addition of 500 μl of NaOH (0.1 N)/0.1% SDS (30 minutes), thus, the radioactivity remaining inside the cell can be determined. The radioactivity present in the haemolysis tubes is counted in counts per minute (cpm) using a gamma counter (Cobra II, Packard). The results in cpm are expressed in the form of exit speed of radioactive iodide (R) according to the following formula: R (min^−1)=[ln(^125I t1)−ln(^125I t2)]/(t1−t2) with ^125I t1: cpm at time t1; ^125I t2: cpm at time t2. This iodide flow is represented in the form of a curve. In order to quantify the exit of iodide due to the administration of the molecule tested, the following relative flow is calculated which makes it possible to be rid of the base flow: Relative speed (min^−1)=Rpeak−Rbasal. […] The results are presented in the form of an average+/−SEM. Student's statistical test is used in order to compare the effects of the drugs with the controls (the values corresponding to P<0.01 are considered statistically significant).
For each experiment, the addition of a cocktail (Forskolin 10 μM, Genistein 30 μM) allows the activation of the CFTR when the latter is on the membrane. […]
The CF15 cells were pre-treated for 2 hours with NB-DNJ (500μM). […] The CFTR activity is measured in iodide efflux (n=8 for each condition) after stimulation by fsk 10μM+Gst 30μM.
The CF15 cells were pre-treated for 2 hours with NB-DNJ at different concentrations. The CFTR activity is measured in iodide efflux (n=4 for each concentration) after stimulation with fsk 10μM+Gst 30μM.

wild-type CFTR [3] = assay: Iodide efflux on Calu-3 cells pre-treated for 2 hours: addressing of wild-type CFTR; type: cell-based, human; details: Calu-3 cells pre-incubated 2 hours at 37° C. (NB-DNJ 500μM or MPB-91 250μM), stimulated with 250μM MPB-91
Procedure: (§1) Calu-3 cells: Calu-3 cells are human epithelial cells of pulmonary origin which express the wild-type CFTR gene.
(§2) The measurements of chloride ion transport in the cells were carried out using the radioactive iodide efflux technique (Becq et al., 1999; Dormer et al., 2001). The tracer (^125I) is incorporated into the intracellular medium. Then, the quantity of radiotracer leaving the cell is counted after the addition of different pharmacological agents. The iodide is used as a tracer of the chloride ion transport. […] 2 rinsings with efflux medium (NaCl: 136.6 mM, KCl: 5.4 mM, KH2PO4: 0.3 mM, NaH2PO4: 0.3 mM, NaHCO3: 4.2 mM, CaCl2: 1.3 mM, MgCl2: 0.5 mM, MgSO4: 0.4 mM, HEPES: 10 mM, D-glucose: 5.6 mM) are carried out in order to eliminate the dead cells which release the radioactivity in an anarchic manner. […] The robot (MultiPROBE, Packard) carries out the following stages: The charge medium is rinsed with efflux medium in order to eliminate the extracellular radioactivity. […] At the end of the experiment, the cells are lysed by the addition of 500 μl of NaOH (0.1 N)/0.1% SDS (30 minutes), thus, the radioactivity remaining inside the cell can be determined. The radioactivity present in the haemolysis tubes is counted in counts per minute (cpm) using a gamma counter (Cobra II, Packard). […]

wild-type CFTR [4] = target: T1, wild-type CFTR (Homo sapiens, UniProt P13569); assay: Iodide efflux on Calu-3 cells: compound tested as activator; type: cell-based; details: fsk 5μM, MPB-91 250μM, NB-DNJ 500μM, n=8
T1 construct: Calu-3 cells are human epithelial cells of pulmonary origin which express the wild-type CFTR gene; endogenous in cells; host or cells: Calu-3 human pulmonary epithelial cells
Procedure: as §1, §2

[5] = patients suffering from acquired immunodeficiency syndrome; cited from earlier work
CHO-WT cells = assay: MTT cytotoxicity test on CHO-WT cells; type: cell-based, Chinese Hamster; details: 2 hours; for cytotoxicity (MTT): CHO cells
Procedure: CHO-WT cells: CHO (Chinese Hamster Ovary) cells are fibroblasts which have been transfected with the wild-type CFTR gene (CFTR-WT). These cells will therefore overexpress the CFTR protein.
The MTT toxicity test is a colorimetric test which is based on the ability of the mitochondrial dehydrogenases to metabolize MTT (yellow tetrazolium salt) to formazan (purple). The absorbance, proportional to the concentration of converted dye, can then be measured by spectrophotometry. The cells are incubated on 96-well plates in the presence of the agent to be tested for 2 hours. 3 controls are carried out: 100% live cells: cells without agent; 0% live cells: cells left in the open air; blank: medium without cells. […] Then they are incubated for 4 hours with 100 μl of RPMI solution supplemented with MTT (0.5 mg/ml). The medium is then eliminated, the addition of 100 μl of DMSO makes it possible to solubilize the converted dye (formazan). The absorbance is measured by spectrophotometry at: 570 nm (purple); 630 nm (background noise). In order to be rid of the background noise, the following calculation is carried out: ODreal=OD570 nm−OD630 nm.
For the purpose of testing the cytotoxicity of NB-DNJ, CHO-WT cells were incubated for 2 hours with different concentrations of inhibitors before being subjected to the cell viability test with MTT.
2 hours of treatment of the cells.

tissues in culture = details: high concentration (2 mM); cited from earlier work
delF508-CFTR [6] = assay: Immunolabelling / cell imaging of delF508 location in CF15 cells; type: cell-based, human; details: CF15 cells after treatment
Procedure: Immunolabelling makes it possible to visualize the cell location of the CFTR protein by means of an anti-CFTR primary antibody (Ab) then a primary anti-antibody secondary antibody labelled with Cy3 fluorophore. The cells are previously seeded on lamellae in appropriate culture medium. 3 washings with TBS (NaCl: 157 mM, Tris base: […], pH 7.4) of 5 minutes each are carried out. The cells are then fixed by the addition of TBS-paraformadehyde (3%) over 20 minutes. After 3 washings with TBS (5 minutes), the cells are incubated with 0.1% TBS-triton (10 minutes) which allows the formation of holes in the cell membrane, then 3 washings with TBS are once again carried out before bringing the cells together with 0.5% TBS-BSA-0.05% saponin for 1 hour. The cells are then incubated with the CFTR anti-C terminal primary antibody (2μg/ml) for 1 hour. 3 washings with TBS-BSA-saponin of 5 minutes each are carried out before incubation with the GAM-cy3 secondary antibody ( 1/400) for 1 hour. Following two 5-minute washings with TBS, the nuclei are labelled by incubation with Topro3 ( 1/1000) for 5 minutes. Finally, the lamellae can be mounted on slides after three last 5-minute washings with TBS. […] In order to differentiate between Cy3 and Topro3 labelling the colour of fluorescence of Topro3 has been changed to blue (colour of the nuclei). […]

delF508 = details: pulmonary epithelial cells; cited from earlier work
[7] = CF15 cells, stimulation Forskolin 10μM + Genistein 30μM

T1 sequence (P13569 whole entry): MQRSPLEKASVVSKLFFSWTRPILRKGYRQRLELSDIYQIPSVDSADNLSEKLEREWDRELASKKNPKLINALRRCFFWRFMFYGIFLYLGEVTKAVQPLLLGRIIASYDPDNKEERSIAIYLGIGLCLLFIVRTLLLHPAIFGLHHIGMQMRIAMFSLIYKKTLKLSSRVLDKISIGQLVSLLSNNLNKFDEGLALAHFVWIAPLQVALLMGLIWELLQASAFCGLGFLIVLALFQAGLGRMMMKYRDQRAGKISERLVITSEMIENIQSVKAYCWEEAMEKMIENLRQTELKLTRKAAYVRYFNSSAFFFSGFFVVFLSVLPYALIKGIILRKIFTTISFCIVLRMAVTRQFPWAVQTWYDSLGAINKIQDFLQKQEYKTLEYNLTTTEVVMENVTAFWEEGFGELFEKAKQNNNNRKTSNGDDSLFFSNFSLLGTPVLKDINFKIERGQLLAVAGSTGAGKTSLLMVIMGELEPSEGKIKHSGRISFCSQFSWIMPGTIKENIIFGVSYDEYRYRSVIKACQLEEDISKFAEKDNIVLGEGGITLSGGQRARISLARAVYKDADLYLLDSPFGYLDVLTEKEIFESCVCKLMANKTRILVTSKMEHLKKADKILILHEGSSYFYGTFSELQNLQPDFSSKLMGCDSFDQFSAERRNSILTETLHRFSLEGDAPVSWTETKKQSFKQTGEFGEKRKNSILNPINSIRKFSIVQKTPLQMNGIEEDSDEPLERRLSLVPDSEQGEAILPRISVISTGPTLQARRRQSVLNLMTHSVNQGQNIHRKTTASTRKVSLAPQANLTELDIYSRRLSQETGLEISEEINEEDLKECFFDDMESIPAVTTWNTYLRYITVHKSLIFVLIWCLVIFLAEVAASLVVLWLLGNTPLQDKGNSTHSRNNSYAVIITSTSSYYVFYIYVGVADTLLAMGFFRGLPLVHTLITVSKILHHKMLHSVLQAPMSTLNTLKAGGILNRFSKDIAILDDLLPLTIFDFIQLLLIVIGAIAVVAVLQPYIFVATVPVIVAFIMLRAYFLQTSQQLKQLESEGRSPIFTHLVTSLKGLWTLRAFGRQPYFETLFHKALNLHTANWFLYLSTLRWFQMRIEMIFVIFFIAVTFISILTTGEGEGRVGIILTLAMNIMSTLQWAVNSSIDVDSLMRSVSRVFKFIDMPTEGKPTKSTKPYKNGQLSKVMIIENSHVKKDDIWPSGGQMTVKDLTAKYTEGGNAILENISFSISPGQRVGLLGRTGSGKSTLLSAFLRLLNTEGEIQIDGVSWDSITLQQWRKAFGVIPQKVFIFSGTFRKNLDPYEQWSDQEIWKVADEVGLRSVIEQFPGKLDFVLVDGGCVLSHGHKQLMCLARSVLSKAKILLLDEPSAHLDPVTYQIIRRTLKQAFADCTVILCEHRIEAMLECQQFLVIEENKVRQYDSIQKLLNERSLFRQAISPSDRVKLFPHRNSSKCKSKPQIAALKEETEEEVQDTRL

C[C@@H]1NC[C@@H](O)[C@H](O)[C@@H]1O [DFJ]
addressing of delF508 and function as ion transporter (iodide efflux) (delF508-CFTR [1]): no significant effect

OC[C@H]1NC[C@H](O)[C@@H](O)[C@H]1O [DGJ]
addressing of delF508 and function as ion transporter (iodide efflux) (delF508-CFTR [1]): no significant effect

OCC1NCC(O)C(O)C1O (stereo not drawn) [DMJ]
addressing of delF508 and function as ion transporter (iodide efflux) (delF508-CFTR [1]): restores an addressing of the delF508 protein and allows the latter to function as an ion transporter
EC50 (delF508-CFTR [2]; [7]): 134 µM

OC[C@H]1NC[C@H](O)[C@@H](O)[C@@H]1O [DNJ]
addressing of delF508 and function as ion transporter (iodide efflux) (delF508-CFTR [1]): restores an addressing of the delF508 protein and allows the latter to function as an ion transporter
EC50 (delF508-CFTR [2]; [7]): > 250 µM

CCCCc1c(O)c2cccc(Cl)c2[n+]2ccccc12 [MPB-91]
CFTR activity (iodide efflux) after 2 hours pre-treatment (wild-type CFTR [3]): not significantly different
activation of iodide efflux (CFTR activity / anionic transports) (wild-type CFTR [4]): activate an iodide efflux

CCCCN1C[C@H](O)[C@@H](O)[C@H](O)[C@H]1CO [NB-DNJ, N-butyl-deoxynojirimycin]
CFTR activity (iodide efflux) after 2 hours pre-treatment (wild-type CFTR [3]): the level of CFTR activity is not affected
activation of iodide efflux (CFTR activity / anionic transports) (wild-type CFTR [4]): is not an activator of the wild-type CFTR nor of other anionic transports of these cells; also recorded: has no effect
tolerability in patients [5]: well tolerated
cytotoxicity (MTT) (CHO-WT cells; 5μM): no cytotoxicity is measurable
cytotoxicity (MTT) (CHO-WT cells; 50μM): no cytotoxicity is measurable
cytotoxicity (MTT) (CHO-WT cells; 500μM): A low toxicity appears
cell viability / cytotoxicity (MTT) (CHO-WT cells; CHO-WT cells, all concentrations): exhibits no cell cytotoxicity
cytotoxicity on tissues in culture (tissues in culture): is not cytotoxic
location of delF508 protein by cell imaging (delF508-CFTR [6]): located the delF508 protein in the plasmatic membrane compartments
addressing of delF508 and function as ion transporter (iodide efflux) (delF508-CFTR [2]; CF15 cells pre-treated 2 hours at 37° C. with 500μM, stimulation fsk 10μM + Gst 30μM, MPB-91 250μM = 100%): restores addressing of the delF508 protein and allows the latter to function as an ion transporter
EC50 (delF508-CFTR [2]; CF15 cells pre-treated 2 hours, stimulation fsk 10μM + Gst 30μM, FIG. 2): 123 µM

O[C@H]1[C@H](O)[C@@H](O)CN2CC[C@H](O)[C@H]12 [castanospermine]
presence of delF508 at the surface of cells (delF508): had an effect on the renewal of the presence of delF508 at the surface of pulmonary epithelial cells

CCCCN1C[C@@H](O)[C@H](O)[C@H](O)[C@@H]1C [nB-DFJ]
addressing of delF508 and function as ion transporter (iodide efflux) (delF508-CFTR [1]): no significant effect

CCCCN1C[C@H](O)[C@@H](O)[C@@H](O)[C@H]1CO [nB-DGJ]
addressing of delF508 and function as ion transporter (iodide efflux) (delF508-CFTR [1]): no significant effect

CCCCN1C[C@@H](O)[C@@H](O)[C@H](O)[C@H]1CO [nB-DMJ]
addressing of delF508 and function as ion transporter (iodide efflux) (delF508-CFTR [1]): restores an addressing of the delF508 protein and allows the latter to function as an ion transporter
EC50 (delF508-CFTR [2]; [7]): 113 µM
